From patent US20190000789A1, “COMPOSITION AND METHOD FOR TREATING INFECTIONS CAUSED BY VANCOMYCIN-RESISTANT INFECTIOUS AGENTS IN A SUBJECT” (priority 2015, published 2019)

Columns and labels:
[1] = system: clinical isolates of vanA-positive Enterococcus faecium; experiment: MIC of vancomycin by serial dilution, isolates not named individually; format: cell-based; details: for MIC: Enterococcus faecium
Protocol: Having established the important role of D-Ala in enhancing the efficacy of vancomycin against vancomycin-resistant S. coelicolor cells, next, its effect on the resistance of clinical isolates of Enterococcus faecium, which were vanA-positive strains, was assessed. MIC values were calculated by testing a serial dilution of vancomycin in the presence or absence of D-Ala in triplicate (Table 3).
The MIC was determined by measurement of the OD600 or by visual assessment, following the Clinical Laboratory and Standards Institute (CLSI) guidelines. […] This value compares to intermediate instead of total resistance. The strains were serially diluted in a 96-well plate and growth was assayed at OD600. The steps down refer to CSLI guidelines for clinical MIC measurements.
Five vanA-positive Enterococcus faecium strains were collected in 2011 and 2014 from patients in the Erasmus University Medical Centre, Rotterdam, The Netherlands. Presence of the vanA gene was confirmed by real-time PCR with the LIGHTCYCLER® 480 instrument (Roche Diagnostics, Almere, The Netherlands) with the primers vanA F1 and vanA R1, and the vanA probe. The resistance profile of these isolates was determined as MIC values using the VITEK II (BioMerieux) system AST-P586. To determine the MIC of vancomycin against E. faecium, cells were grown overnight on Trypticase Soy Agar (TSA) blood agar plates (Becton Dickinson, Breda, The Netherlands) and suspended in 0.9% NaCl until OD600 0.5 (±0.05). Of this suspension, 10 μl was dispensed into wells of sterile flat-bottom 96-well polystyrene tissue culture plates (Greiner Bio-One, Alphen aan Den Rijn, The Netherlands) containing serial dilutions of vancomycin in 190 μl of a 1:1 mixture of Fetal Bovine Serum (FBS) (Gibco, Bleiswijk, The Netherlands) and Iscove's Modified Dulbecco's Medium (IMDM) (without phenolred, Gibco, Bleiswijk, The Netherlands), and in the presence or absence of 50 mM D-alanine (Alfa Aesar, Ward Hill, Mass., USA). Plates were incubated for 18-24 hours at 37° C. and MIC values determined visually following the CLSI guidelines, or by spectrophotometer at 600 nm.

S. coelicolor LAG2 = experiment: LC-MS analysis of peptidoglycan precursors, including time course after alanine addition; format: cell-based, Streptomyces coelicolor
Protocol: In order to get more insights into the synthesis of vancomycin-sensitive (i.e., wild-type) or the alternate vancomycin-resistant peptidoglycan, the pool of peptidoglycan precursors was analyzed by Liquid Chromatography coupled to Mass Spectrometry (LC-MS). When cells produce wild-type PG, only the MurNac-pentapeptide with a D-Ala-D-Ala terminus are detected, while vancomycin-resistant PG precursors have a D-Ala-D-Lac terminus. To analyze the precursors produced in S. coelicolor M145 and its mutant derivatives LAG1 (Δddl) and LAG2 (Δddl vanS::IS466A) in the presence or absence of vancomycin, the strains were grown until exponential phase, after which the cultures were harvested, washed and the precursors extracted with 5% TCA. The supernatants were desalted, concentrated and analyzed by LC-MS (see Materials and Methods section).
To investigate what the effect would be of the addition of excess of D-Ala on the accumulation of wild-type precursors, a time-course experiment was performed to follow the effect of D-Ala addition on the ratio between wild-type and resistant precursors. Therefore, 300 ml liquid-grown NMMP cultures were supplemented with either D-Ala or L-Ala (control) at 50 mM end concentration, and 10 ml samples were collected prior to and 1, 5, 15, 30, 60, 120 and 180 minutes after the addition of either alanine stereoisomer. Samples were immediately filtered by vacuum filtration, washed in 0.9% NaCl, biomass scraped off the filter, added to a tube containing 5% TCA and samples prepared as described above. […] However, addition of 50 mM D-Ala triggered the production of small amounts of wt precursor (1%) within 1 minute. After 15 minutes, this amount had increased to 4%, which appeared to be close to the maximum, with levels of wt precursors never exceeding 5%.
For the precursor isolation and identification, a modification of the method described previously by Hong and colleagues (Hong et al., 2004) was used. 10 μg vancomycin was added to the strains at the moment of inoculation. The strains were grown in NMMP (1% (w/v) Mannitol, 50 mM MgCl2) until mid-log phase (OD-0.3-0.4) and mycelia were harvested by centrifugation at 4° C. and washed in 0.9% NaCl. The mycelium was extracted with 5% cold trichloric acid (TCA) for 30 minutes at 4° C. This was centrifuged and the supernatant desalted on a Sephadex G-25 column (Illustra NAP-10 Columns, GE Healthcare, Pittsburgh), and concentrated by rotary evaporation. The concentrated precursors were dissolved in HPLC-grade water and separated by LC-MS using a gradient of 0-20% acetonitrile in water with 0.1% TFA. The elution was monitored at 254 nm and monitored by the sizes eluted (1193.8-1195.3).
For the measurement over time, the protocol was adjusted in the following way: 300 ml NMMP cultures were grown until exponential phase, at which point a 10 ml sample was taken (sample t=0) and 50 mM of D-Ala or L-Ala was added, followed by further sampling after 1, 5, 15, 30, 60, 120 and 180 minutes. Samples were rapidly filtered with a vacuum pump and washed with 0.9% (w/v) NaCl, mycelia scraped off the filter and transferred to 5% TCA.

In the case of `CN[C@H](CC(C)C)C(=O)N[C@H]1C(=O)N[C@@H](CC(N)=O)C(=O)N[C@H]2C(=O)N[C@H]3C(=O)N[C@H](C(=O)N[C@H](C(=O)O)c4cc(O)cc(O)c4-c4cc3ccc4O)[C@H](O)c3ccc(c(Cl)c3)Oc3cc2cc(c3O[C@@H]2O[C@H](CO)[C@@H](O)[C@H](O)[C@H]2O[C@H]2C[C@](C)(N)[C@H](O)[C@H](C)O2)Oc2ccc(cc2Cl)[C@H]1O` [vancomycin], the MIC ([1]; worst cases, 50 mM D-Ala) is reported as 256 µg/mL, the MIC ([1]; worst cases, without D-Ala) is reported as 4100 µg/mL and the “reduction of MIC of vancomycin in dilution steps” value ([1]; all clinical isolates, 50 mM D-Ala) is reported as 4-7 dilution steps. For the same compound, the MIC of vancomycin ([1]; worst cases, 50 mM D-Ala) was 128 µg/mL, the “precursors terminated with D-Ala-D-Lac” value (S. coelicolor LAG2; LAG2 grown with vancomycin) was 99.8% and the “wild-type (vancomycin-sensitive) peptidoglycan” value (S. coelicolor LAG2; LAG2 with vancomycin (FIG. 3B)) was “less than 1%”.
